Source: US8765727B2, “Macrocyclic compounds and their use as kinase inhibitors” (Incyte Corporation, priority 2009, dated 2014)
Counter-ions that a name gives are not always drawn. Like-named read-outs stand apart in the source and are kept apart here.

Columns and labels:
Format in all cases: biochemical
[1] = biological target: human JAK1 (a.a. 837-1142) catalytic domain (Homo sapiens, UniProt P23458); assay: In vitro JAK kinase assay (HTRF), JAK1; settings: 90 μM ATP, 500 nM peptide, room temperature 1 hr
Description: (§1) One or more compounds herein were tested for inhibitory activity of JAK targets according to the following in vitro assay described in Park et al., Analytical Biochemistry 1999, 269, 94-104. The catalytic domains of human JAK1 (a.a. 837-1142), JAK2 (a.a. 828-1132) and JAK3 (a.a. 781-1124) with an N-terminal His tag were expressed using baculovirus in insect cells and purified. The catalytic activity of JAK1, JAK2 or JAK3 was assayed by measuring the phosphorylation of a biotinylated peptide. The phosphorylated peptide was detected by homogenous time resolved fluorescence (HTRF). […] The ATP concentration in the reactions was 90 μM for JAK1, 30 μM for JAK2 and 3 μM for JAK3. Reactions were carried out at room temperature for 1 hr and then stopped with 20 μL 45 mM EDTA, 300 nM SA-APC, 6 nM Eu-Py20 in assay buffer (Perkin Elmer, Boston, Mass.). Binding to the Europium labeled antibody took place for 40 minutes and HTRF signal was measured on a Fusion plate reader (Perkin Elmer, Boston, Mass.).

[2] = biological target: Recombinant Human Anaplastic Lymphoma Kinase (Homo sapiens (Human), UniProt Q9UM73); assay: ALK HTRF kinase assay; settings: 90 μM ATP, 0.25 nM enzyme, 2 hours at 25° C.
Recombinant Human Anaplastic Lymphoma Kinase, sequence (Q9UM73 19-1620): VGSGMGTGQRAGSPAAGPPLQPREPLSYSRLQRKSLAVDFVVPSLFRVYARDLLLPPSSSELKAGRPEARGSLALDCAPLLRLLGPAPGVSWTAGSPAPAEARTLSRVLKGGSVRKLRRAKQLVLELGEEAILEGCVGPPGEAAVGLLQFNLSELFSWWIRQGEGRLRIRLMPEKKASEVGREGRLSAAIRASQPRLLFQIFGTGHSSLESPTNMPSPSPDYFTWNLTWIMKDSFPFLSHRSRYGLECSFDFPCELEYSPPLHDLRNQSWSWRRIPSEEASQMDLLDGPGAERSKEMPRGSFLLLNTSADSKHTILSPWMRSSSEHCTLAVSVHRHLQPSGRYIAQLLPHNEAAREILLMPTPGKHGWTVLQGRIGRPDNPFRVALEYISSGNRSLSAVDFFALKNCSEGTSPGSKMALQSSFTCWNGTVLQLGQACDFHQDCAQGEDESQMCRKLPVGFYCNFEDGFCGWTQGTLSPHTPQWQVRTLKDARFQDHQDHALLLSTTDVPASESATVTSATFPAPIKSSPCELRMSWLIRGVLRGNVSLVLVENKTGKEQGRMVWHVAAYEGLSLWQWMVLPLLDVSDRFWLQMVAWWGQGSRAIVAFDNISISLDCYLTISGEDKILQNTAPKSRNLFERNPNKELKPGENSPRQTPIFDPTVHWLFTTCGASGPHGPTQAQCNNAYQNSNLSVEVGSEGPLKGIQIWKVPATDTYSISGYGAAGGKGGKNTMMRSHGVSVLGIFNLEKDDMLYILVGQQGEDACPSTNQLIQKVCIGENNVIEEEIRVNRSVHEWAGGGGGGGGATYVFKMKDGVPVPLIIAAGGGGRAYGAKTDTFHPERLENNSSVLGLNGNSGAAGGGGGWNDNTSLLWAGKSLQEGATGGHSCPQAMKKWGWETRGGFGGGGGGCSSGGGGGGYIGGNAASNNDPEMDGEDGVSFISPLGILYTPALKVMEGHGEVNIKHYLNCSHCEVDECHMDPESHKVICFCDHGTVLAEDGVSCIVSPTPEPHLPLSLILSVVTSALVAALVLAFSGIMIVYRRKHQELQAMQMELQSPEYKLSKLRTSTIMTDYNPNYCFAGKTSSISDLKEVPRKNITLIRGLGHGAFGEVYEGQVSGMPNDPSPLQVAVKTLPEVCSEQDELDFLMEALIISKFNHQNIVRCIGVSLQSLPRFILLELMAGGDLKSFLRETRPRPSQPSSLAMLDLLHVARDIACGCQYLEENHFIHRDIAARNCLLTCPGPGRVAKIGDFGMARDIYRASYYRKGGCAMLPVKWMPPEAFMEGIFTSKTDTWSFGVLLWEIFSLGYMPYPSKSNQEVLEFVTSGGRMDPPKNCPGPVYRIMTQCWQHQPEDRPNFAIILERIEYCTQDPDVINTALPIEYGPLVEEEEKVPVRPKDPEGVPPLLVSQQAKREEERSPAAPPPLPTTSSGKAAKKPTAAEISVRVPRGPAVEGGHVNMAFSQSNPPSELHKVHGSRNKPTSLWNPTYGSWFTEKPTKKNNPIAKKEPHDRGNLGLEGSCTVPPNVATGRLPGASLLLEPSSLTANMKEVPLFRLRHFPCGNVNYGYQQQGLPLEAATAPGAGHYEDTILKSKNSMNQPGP
Description: Materials: Recombinant Human Anaplastic Lymphoma Kinase was purchased from Invitrogen, Carlsbad, Calif. Peptide substrate (Biotin-[…]-amide) was custom synthesized at EZBiolab, Westfield, Ind. Streptavidin conjugated SureLight-Allophycocyania and LANCE Eu-W1024 labeled anti-phosphotyrosine antibody were from Perkin-Elmer, Boston, Mass. Microplates were from Corning Inc., Acton, Mass. All other reagents were from Sigma, St. Louis, Mo.
HTRF kinase assay: 40 μL reactions were run in black 384 well polystyrene plates in assay buffer (50 mM Tris, pH 7.8, 100 mM NaCI, 0.1 mg/mL BSA, 5 mM DTT), containing 0.5 μM Biotinylated peptide substrate, 10 mM MgCl2, 90 μM ATP, and 0.25 nM enzyme for 2 hours at 25° C. Reactions were stopped by addition of 20 μL assay buffer supplemented with an additional 50 mM NaCl, 0.4 mg/mL BSA, 45 mM EDTA, 4.5 nM LANCE Eu-W1024 labeled anti-phosphotyrosine antibody and 200 nM streptavidin conjugated SureLight-allophycocyanin. Plates were read in Fusion α-FP instrument (Perkin-Elmer). The concentrations needed to reach 50% inhibition, the IC50 value, were determined by fitting the assay signal to the following equation using Graphpad Prizm. Signal=Bottom+(Top−Bottom)/(1+10^((Log(IC50)−Log [I])*Hill Slope) Bottom and Top refer to the post and pre-transition baselines, respectively.

[3] = biological target: human JAK2 (a.a. 828-1132) catalytic domain (Homo sapiens (Human), UniProt O60674); assay: In vitro JAK kinase assay (HTRF), JAK2
human JAK2 (a.a. 828-1132) catalytic domain, sequence (O60674 828-1132): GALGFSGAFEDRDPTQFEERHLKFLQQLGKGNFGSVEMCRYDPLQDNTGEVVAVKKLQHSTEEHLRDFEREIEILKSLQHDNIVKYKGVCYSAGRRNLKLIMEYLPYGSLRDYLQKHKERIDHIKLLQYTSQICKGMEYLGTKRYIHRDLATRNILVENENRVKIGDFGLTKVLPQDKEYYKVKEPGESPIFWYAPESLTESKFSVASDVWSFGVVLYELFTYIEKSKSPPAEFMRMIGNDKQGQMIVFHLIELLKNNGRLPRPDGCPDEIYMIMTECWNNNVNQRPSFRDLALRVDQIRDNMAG
Description: One or more compounds herein were tested for inhibitory activity of JAK targets according to the following in vitro assay described in Park et al., Analytical Biochemistry 1999, 269, 94-104. The catalytic domains of human JAK1 (a.a. 837-1142), JAK2 (a.a. 828-1132) and JAK3 (a.a. 781-1124) with an N-terminal His tag were expressed using baculovirus in insect cells and purified. The catalytic activity of JAK1, JAK2 or JAK3 was assayed by measuring the phosphorylation of a biotinylated peptide. The phosphorylated peptide was detected by homogenous time resolved fluorescence (HTRF). […] Binding to the Europium labeled antibody took place for 40 minutes and HTRF signal was measured on a Fusion plate reader (Perkin Elmer, Boston, Mass.).

TYK2 = TYK2 (Homo sapiens (Human), UniProt P29597); assay: TYK2 assay (as described by Thompson et al.)
TYK2, sequence (P29597 whole entry, species assumed): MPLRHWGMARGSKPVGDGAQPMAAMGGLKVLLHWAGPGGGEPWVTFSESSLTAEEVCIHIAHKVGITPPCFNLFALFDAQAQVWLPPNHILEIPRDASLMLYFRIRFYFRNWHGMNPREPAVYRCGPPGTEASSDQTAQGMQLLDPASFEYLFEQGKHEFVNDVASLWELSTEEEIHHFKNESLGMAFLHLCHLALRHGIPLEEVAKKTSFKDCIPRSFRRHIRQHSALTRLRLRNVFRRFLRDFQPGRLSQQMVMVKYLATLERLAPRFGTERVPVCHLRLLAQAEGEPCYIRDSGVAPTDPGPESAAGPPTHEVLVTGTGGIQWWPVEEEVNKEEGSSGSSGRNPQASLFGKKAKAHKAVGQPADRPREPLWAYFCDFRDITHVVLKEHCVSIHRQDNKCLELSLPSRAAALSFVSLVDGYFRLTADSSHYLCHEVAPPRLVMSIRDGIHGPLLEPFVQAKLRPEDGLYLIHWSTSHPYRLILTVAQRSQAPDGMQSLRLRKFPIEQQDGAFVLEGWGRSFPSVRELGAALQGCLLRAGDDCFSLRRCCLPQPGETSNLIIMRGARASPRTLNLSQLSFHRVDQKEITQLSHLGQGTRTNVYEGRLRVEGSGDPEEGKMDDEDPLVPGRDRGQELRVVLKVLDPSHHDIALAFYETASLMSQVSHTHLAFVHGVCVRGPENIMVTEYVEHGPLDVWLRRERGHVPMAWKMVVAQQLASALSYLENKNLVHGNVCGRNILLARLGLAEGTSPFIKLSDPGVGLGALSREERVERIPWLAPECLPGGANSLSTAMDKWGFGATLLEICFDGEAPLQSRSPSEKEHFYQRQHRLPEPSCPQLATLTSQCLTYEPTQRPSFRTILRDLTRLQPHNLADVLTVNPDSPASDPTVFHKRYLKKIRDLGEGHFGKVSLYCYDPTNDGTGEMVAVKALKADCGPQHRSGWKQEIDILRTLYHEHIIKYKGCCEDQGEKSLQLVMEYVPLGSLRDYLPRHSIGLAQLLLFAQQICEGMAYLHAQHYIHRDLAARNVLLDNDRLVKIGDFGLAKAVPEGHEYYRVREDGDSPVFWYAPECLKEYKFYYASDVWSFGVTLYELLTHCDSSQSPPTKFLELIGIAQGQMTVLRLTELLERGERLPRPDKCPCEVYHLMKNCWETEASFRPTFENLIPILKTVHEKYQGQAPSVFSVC
Excerpt: The invention will be described in greater detail by way of specific examples. The following examples are offered for illustrative purposes, and are not intended to limit the invention in any manner. Those of skill in the art will readily recognize a variety of non-critical parameters which can be changed or modified to yield essentially the same results. In some instances where the compounds of the examples were isolated by preparative HPLC in the presence of trifluoroacetic acid (TFA) or other acid, the compound may have been obtained as the corresponding salt. […] Certain compounds described in Tables 1 and in the Example section were tested for inhibitory activity of JAK/ALK targets according to assays such as those described herein or those known in the art [e.g., ALK assays described in WO 04/079326; and TYK2 assays described by James E. Thompson et. al, “Photochemical preparation of a pyridone containing tetracycle: A JAK protein kinase inhibitor,” Bioorganic & Medicinal Chemistry Letters, Volume 12, Issue 8, 22 Apr. 2002, Pages 1219-1223]. […] Some exemplary data of the compounds of the invention are shown in Table 1 in the experimental section.

[4] = biological target: human JAK3 (a.a. 781-1124) catalytic domain (Homo sapiens (Human), UniProt P52333); assay: In vitro JAK kinase assay (HTRF), JAK3; settings: 3 μM ATP, 500 nM peptide, room temperature 1 hr
human JAK3 (a.a. 781-1124) catalytic domain, sequence (P52333 781-1124): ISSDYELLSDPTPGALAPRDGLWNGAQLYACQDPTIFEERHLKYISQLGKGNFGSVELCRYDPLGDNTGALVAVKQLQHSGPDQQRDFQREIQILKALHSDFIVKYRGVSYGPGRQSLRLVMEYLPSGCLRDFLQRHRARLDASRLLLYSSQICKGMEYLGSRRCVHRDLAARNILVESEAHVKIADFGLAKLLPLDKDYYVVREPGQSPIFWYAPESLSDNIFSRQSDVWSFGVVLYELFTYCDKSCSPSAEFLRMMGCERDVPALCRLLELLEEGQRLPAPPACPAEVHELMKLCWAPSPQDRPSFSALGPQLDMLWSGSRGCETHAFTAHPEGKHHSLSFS
Description: as §1

[5] = 30 μM ATP, 500 nM peptide, room temperature 1 hr

| IC50 [1] | IC50 [2] | IC50 [3, 5] | IC50 (TYK2) | IC50 [4] | SMILES | IC50 [3] |
| --- | --- | --- | --- | --- | --- | --- |
| 28 nM | 1230 nM | 23 nM | 53 nM | 55 nM | Clc1cnc2nc1NCCc1cccc(c1)OCCc1cccc(c1)N2 [Example 9, 6-Chloro-16-oxa-2,4,8,25-tetraazatetracyclo[17.3.1.1(3,7).1(11,15)]pentacosa-1(23),3(25),4,6,11(24),12,14,19,21-nonaene] | – |
| 32 nM | > 10000 nM | 25 nM | 106 nM | 62 nM | Clc1cnc2nc1NCCCc1cccc(c1)OCCc1cccc(c1)N2 [Example 13, 21-Chloro-10-oxa-2,19,23,24-tetraazatetracyclo[18.3.1.1(3,7).1(11,15)]hexacosa-1(24),3(26),4,6,11(25),12,14,20,22-nonaene] | – |
| 300 nM | > 10000 nM | – | 400 nM | 315 nM | Clc1cnc2nc1NCCc1cccc(c1)OCCCc1cccc(c1)N2 [Example 12, 6-Chloro-16-oxa-2,4,8,26-tetraazatetracyclo[18.3.1.1(3,7).1(11,15)]hexacosa-1(24),3(26),4,6,11(25),12,14,20,22-nonaene] | – |
| 600 nM | > 10000 nM | – | 438 nM | 300 nM | Clc1cnc2nc1NCCc1cccc(c1)OCc1cccc(c1)N2 [Example 8, 19-Chloro-9-oxa-2,17,21,22-tetraazatetracyclo[16.3.1.1(3,7).1(10,14)]tetracosa-1(22),3(24),4,6,10(23),11,13,18,20-nonaene] | – |
| 122 nM | > 1000 nM | 117 nM | 237 nM | 180 nM | Clc1cnc2nc1NCCCc1cccc(c1)OCc1cccc(c1)N2 [Example 10, 20-Chloro-9-oxa-2,18,22,23-tetraazatetracyclo[17.3.1.1(3,7).1(10,14)]pentacosa-1(23),3(25),4,6,10(24),11,13,19,21-nonaene] | – |

More lines, now with the values behind:

| SMILES | IC50 [1] | IC50 [2] | IC50 [3, 5] | IC50 (TYK2) | IC50 [4] | IC50 [3] |
| --- | --- | --- | --- | --- | --- | --- |
| O=C(Nc1ccc2cc1CCc1cncc(c1)Nc1ncc(Cl)c(n1)NC2)c1ccccc1 [Example 18, N-[6-Chloro-2,4,8,19,23-pentaazatetracyclo[15.3.1.1(3,7).1(10,14)]tricosa-1(21),3(23),4,6,10(22),11,13,17,19-nonaen-13-yl]benzamide bis(trifluoroacetate)] | > 1000 nM | > 1000 nM | > 1000 nM | > 1000 nM | > 1000 nM | – |
| O=C1Nc2cccc(c2)CNc2nc(ncc2Cl)Nc2cccc1c2 [Example 4, 6-Chloro-2,4,8,15,23-pentaazatetracyclo[15.3.1.1(3,7).1(10,14)]tricosa-1(21),3(23),4,6,10(22),11,13,17,19-nonaen-16-one trifluoroacetate] | 96 nM | > 10000 nM | 104 nM | > 1000 nM | 21 nM | – |
| Clc1cnc2nc1NCc1cc(Br)cc(c1)OCCCc1cccc(c1)N2 [Example 16, 12-Bromo-6-chloro-15-oxa-2,4,8,25-tetraazatetracyclo[17.3.1.1(3,7).1(10,14)]pentacosa-1(23),3(25),4,6,10(24),11,13,19,21-nonaene] | – | 280 nM | 5 nM | 149 nM | – | – |
| Clc1cnc2nc1NCc1cc(ccc1-c1ccccc1)OCCCc1cccc(c1)N2 [Example 15, 6-Chloro-11-phenyl-15-oxa-2,4,8,25-tetraazatetracyclo[17.3.1.1(3,7).1(10,14)]pentacosa-1(23),3(25),4,6,10(24),11,13,19,21-nonaene] | 81 nM | > 1000 nM | 41 nM | 400 nM | 31 nM | – |
| O=S1(=O)Nc2cccc(c2)CNc2nc(ncc2Cl)Nc2cccc1c2 [Example 3, 6-Chloro-16-thia-2,4,8,15,23-pentaazatetracyclo[15.3.1.1(3,7).1(10,14)]tricosa-1(21),3(23),4,6,10(22),11,13,17,19-nonaene 16,16-dioxide trifluoroacetate] | 300 nM | > 10000 nM | – | 830 nM | 325 nM | – |
| Clc1cnc2nc1NCc1cccc(c1)OCc1cccc(c1)N2 [Example 1, 6-Chloro-15-oxa-2,4,8,23-tetraazatetracyclo[15.3.1.1(3,7).1(10,14)]tricosa-1(21),3(23),4,6,10(22),11,13,17,19-nonaene trifluoroacetate] | 51 nM | > 1000 nM | – | 400 nM | 17 nM | 49 nM |
| C[C@H]1Nc2nc(ncc2Cl)Nc2cccc(c2)COc2cccc1c2 [Example 6, (9R)-6-Chloro-9-methyl-15-oxa-2,4,8,23-tetraazatetracyclo[15.3.1.1(3,7).1(10,14)]tricosa-1(21),3(23),4,6,10(22),11,13,17,19-nonaene trifluoroacetate] | 346 nM | > 10000 nM | 350 nM | > 1000 nM | 140 nM | – |
| C[C@@H]1Nc2nc(ncc2Cl)Nc2cccc(c2)COc2cccc1c2 [Example 11, (9S)-6-Chloro-9-methyl-15-oxa-2,4,8,23-tetraazatetracyclo[15.3.1.1(3,7).1(10,14)]tricosa-1(21),3(23),4,6,10(22),11,13,17,19-nonaene trifluoroacetate] | > 1000 nM | > 10000 nM | > 1000 nM | > 1000 nM | > 1000 nM | – |
| N#Cc1ccccc1S(=O)(=O)Nc1ccc2cc1CCc1cncc(c1)Nc1ncc(Cl)c(n1)NC2 [Example 19, N-[6-Chloro-2,4,8,19,23-pentaazatetracyclo[15.3.1.1(3,7).1(10,14)]tricosa-1(21),3(23),4,6,10(22),11,13,17,19-nonaen-13-yl]-2-cyanobenzenesulfonamide bis(trifluoroacetate)] | > 1000 nM | > 1000 nM | > 1000 nM | > 1000 nM | > 1000 nM | – |
| Nc1ccc2cc1CCc1cncc(c1)Nc1ncc(Cl)c(n1)NC2 [Example 17, 6-Chloro-2,4,8,19,23-pentaazatetracyclo[15.3.1.1(3,7).1(10,14)]tricosa-1(21),3(23),4,6,10(22),11,13,17,19-nonaen-13-amine] | 102 nM | > 1000 nM | 447 nM | 386 nM | 114 nM | – |
| Clc1cnc2nc1NCc1cccc(c1)OCCc1cccc(c1)N2 [Example 2, 6-Chloro-15-oxa-2,4,8,24-tetraazatetracyclo[16.3.1.1(3,7).1(10,14)]tetracosa-1(22),3(24),4,6,10(23),11,13,18,20-nonaene trifluoroacetate] | 13 nM | 1530 nM | 10 nM | 35 nM | 9.2 nM | – |
